The experiment deals with Glycylpeptide N-tetradecanoyltransferase 1 (Homo sapiens) (UniProt P30419). Nature of the experiment: Inhibition of recombinant N-terminal his-6 tagged human NMT expressed in Escherichia coli BL21 (DE3)pLysS using peptide substrate preincubated for 5 mins followed by substrate addition and measured after 30 mins by scintillation proximity assay.
Sequence of Glycylpeptide N-tetradecanoyltransferase 1 (Homo sapiens) (P30419 whole entry, looked up): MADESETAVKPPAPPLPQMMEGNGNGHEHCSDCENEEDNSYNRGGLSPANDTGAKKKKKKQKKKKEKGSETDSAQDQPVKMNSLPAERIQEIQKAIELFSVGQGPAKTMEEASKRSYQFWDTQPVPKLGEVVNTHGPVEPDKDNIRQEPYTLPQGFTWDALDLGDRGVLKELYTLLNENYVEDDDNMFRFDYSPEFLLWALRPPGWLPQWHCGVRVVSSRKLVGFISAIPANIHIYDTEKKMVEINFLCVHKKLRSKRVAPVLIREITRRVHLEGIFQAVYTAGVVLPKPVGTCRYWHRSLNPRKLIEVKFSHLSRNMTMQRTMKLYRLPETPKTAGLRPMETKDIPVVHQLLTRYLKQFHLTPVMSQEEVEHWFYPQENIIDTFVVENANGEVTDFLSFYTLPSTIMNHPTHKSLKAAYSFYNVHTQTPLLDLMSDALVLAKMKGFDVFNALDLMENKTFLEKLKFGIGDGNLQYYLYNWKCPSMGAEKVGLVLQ

One may read the IC50 as the midpoint of a concentration-inhibition curve. Turning to `CN(C)C(=O)c1ccc2nc(NC(=O)[C@@H]3CCC[C@H](NCc4ccc5ccoc5c4)C3)sc2c1`, the IC50 stood at 656 µM.

On to `O=C(Nc1nc2ccccc2s1)[C@H]1CC[C@@H](NCc2ccc3ccccc3c2)CC1`, for which the IC50 was determined as 286 µM.

In the case of `O=C(Nc1nc2cc(F)ccc2s1)[C@H]1CC[C@@H](NCc2ccc3ccccc3c2)CC1`, the IC50 stood at 656 µM.

The record behind these values is BindingDB's records for PubMed 37336067 (State University of Paraiba).
